One block for each molecule: values may come before it. Activity calls are given as the source filed them. No cut-off for these calls is given here.
Experiments:
[1] = Cytotoxicity against HUVEC assessed as cell viability at 3.12 uM after 24 hrs by MTT assay; type: cell-based; conditions: human, HUVEC cells; read-out: Activity
[2] = Cytotoxicity against HUVEC assessed as cell viability at 100 uM after 24 hrs by MTT assay; type: cell-based; conditions: human, HUVEC cells; read-out: Activity
HUVEC [3] = test: Cytotoxicity against HUVEC assessed as reduction in cell viability after 24 hrs by MTT assay; type: cell-based; conditions: human
HUVEC [4] = test: Antiangiogenic activity in HUVEC assessed as inhibition of vascular endothelial tube formation at 3.125 uM after 24 hrs by matrigel assay relative to control; type: functional; conditions: Homo sapiens
HUVEC [5] = test: Antiangiogenic activity in HUVEC assessed as inhibition of vascular endothelial tube formation at 6.25 uM after 24 hrs by matrigel assay relative to control; type: functional; conditions: Homo sapiens
HUVEC [6] = test: Cytotoxicity against HUVEC assessed as reduction in cell viability at 100 uM after 24 hrs by MTT assay; type: cell-based; conditions: human
HUVEC [7] = test: Cytotoxicity against HUVEC assessed as reduction in cell viability up to 6.25 uM after 24 hrs by MTT assay; type: cell-based; conditions: human
HUVEC [8] = test: Cytotoxicity against HUVEC assessed as reduction in cell viability at 12.50 to 100 uM after 24 hrs by MTT assay; type: cell-based; conditions: human
MDA-MB-231 [9] = test: Antimetastatic activity against human MDA-MB-231 cells assessed as cell viability at 3.125 uM after 24 hrs by MTT assay relative to control; type: functional; conditions: MDA-MB-231, 24 h, read-out: Activity
MDA-MB-231 [10] = test: Antimetastatic activity against human MDA-MB-231 cells assessed as reduction in cell viability at 6.25 uM after 24 hrs by MTT assay relative to control; type: functional
MDA-MB-231 [11] = test: Antimetastatic activity against human MDA-MB-231 cells assessed as reduction in cell viability at 50 uM after 24 hrs by MTT assay relative to control; type: functional
MDA-MB-231 [12] = test: Antimetastatic activity against human MDA-MB-231 cells assessed as reduction in cell viability at 100 uM after 24 hrs by MTT assay relative to control; type: functional
MDA-MB-231 [13] = test: Antimetastatic activity against human MDA-MB-231 cells assessed as reduction in cell viability at 200 uM after 24 hrs by MTT assay relative to control; type: functional
MCF7 [14] = test: Antimetastatic activity against human MCF7 cells assessed as cell viability at 3.125 uM after 24 hrs by MTT assay relative to control; type: functional; conditions: MCF7, 24 h, read-out: Activity
MCF7 [15] = test: Antimetastatic activity against human MCF7 cells assessed as cell viability at 100 uM after 24 hrs by MTT assay relative to control; type: functional; conditions: MCF7, 24 h, read-out: Activity
MDA-MB-231 [16] = test: Antimetastatic activity against human MDA-MB-231 cells assessed as reduction in cell viability at <6.25 uM after 24 hrs by MTT assay; type: functional, cell-based
MDA-MB-231 [17] = test: Decrease in MMP9 mRNA expression in human MDA-MB-231 cells at 3.125 to 6.25 uM after 24 hrs by RT-PCR method; type: functional, cell-based
MDA-MB-231 [18] = test: Downregulation of VEGF protein expression in human MDA-MB-231 cells at 3.125 uM after 24 hrs by Western blot analysis relative to control; type: functional
MDA-MB-231 [19] = test: Downregulation of VEGF protein expression in human MDA-MB-231 cells at 6.25 uM after 24 hrs by Western blot analysis relative to control; type: functional
[20] = biological target: RAC-alpha serine/threonine-protein kinase (Homo sapiens) (UniProt P31749); test: Inhibition of Akt phosphorylation in human MDA-MB-231 cells at 3.125 uM after 24 hrs by Western blot analysis relative to control; type: cell-based
[21] = biological target: RAC-alpha serine/threonine-protein kinase (Homo sapiens) (UniProt P31749); test: Inhibition of Akt phosphorylation in human MDA-MB-231 cells at 6.25 uM after 24 hrs by Western blot analysis relative to control; type: cell-based
Homo sapiens [22] = species on record: Homo sapiens; test: Inhibition of ERK phosphorylation in human MDA-MB-231 cells at 3.125 uM after 24 hrs by Western blot analysis relative to control; type: cell-based
Homo sapiens [23] = species on record: Homo sapiens; test: Inhibition of ERK phosphorylation in human MDA-MB-231 cells at 6.25 uM after 24 hrs by Western blot analysis relative to control; type: cell-based
Homo sapiens [24] = species on record: Homo sapiens; test: Inhibition of ERK phosphorylation in human MDA-MB-231 cells at […] after 24 hrs by Western blot analysis relative to control; type: cell-based

Sequence of RAC-alpha serine/threonine-protein kinase (Homo sapiens) (P31749 whole entry): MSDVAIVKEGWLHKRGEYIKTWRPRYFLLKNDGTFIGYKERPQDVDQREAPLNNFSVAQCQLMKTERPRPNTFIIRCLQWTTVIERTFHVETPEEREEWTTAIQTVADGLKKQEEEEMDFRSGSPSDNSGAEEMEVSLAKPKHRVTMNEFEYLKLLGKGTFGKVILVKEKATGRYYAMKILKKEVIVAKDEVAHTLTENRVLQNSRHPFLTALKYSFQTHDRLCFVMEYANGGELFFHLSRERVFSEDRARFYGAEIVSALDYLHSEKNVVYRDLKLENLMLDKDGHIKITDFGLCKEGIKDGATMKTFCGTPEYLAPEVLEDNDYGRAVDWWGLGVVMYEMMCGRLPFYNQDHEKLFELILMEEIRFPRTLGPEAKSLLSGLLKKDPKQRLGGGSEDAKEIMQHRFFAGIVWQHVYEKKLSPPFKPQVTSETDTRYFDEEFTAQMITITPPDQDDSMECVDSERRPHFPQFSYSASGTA

Compound: COc1cccc2c1C(=O)c1c(O)c3c(c(O)c1C2=O)C[C@@](O)(C(=O)CO)C[C@@H]3O[C@H]1C[C@H](N)[C@H](O)[C@H](C)O1 [DOXORUBICIN]
viability at 24 h, 3.12 µM [1]: 14.2%
viability at 24 h, 100 µM [2]: 11.7%

fold change (FC) [20]: 0.68
fold change (FC) [21]: 0.66
Compound: COc1cc2oc(-c3ccc(O)cc3)cc(=O)c2c(O)c1OC [CIRSIMARITIN]
Activity (HUVEC [3]): Dose-dependent effect
inhibition at 3.125 µM (HUVEC [4]): 18.1%
inhibition at 6.25 µM (HUVEC [5]): 32.2%
viability at 24 h, 3.12 µM [1]: 89.9%
Activity (HUVEC [6]): 62.04%
Activity (HUVEC [7]): Non-Toxic
Activity (HUVEC [8]): Toxic
viability at 24 h, 100 µM [2]: 38%
viability at 3.125 µM (MDA-MB-231 [9]): 88.2%
Activity (MDA-MB-231 [10]): 83.19%
Activity (MDA-MB-231 [11]): 78.74%
Activity (MDA-MB-231 [12]): 38.56%
Activity (MDA-MB-231 [13]): 52.73%
viability at 3.125 µM (MCF7 [14]): 81.8%
viability at 100 µM (MCF7 [15]): 53.4%
Activity (MDA-MB-231 [16]): inactive
Activity (MDA-MB-231 [17]): Active
fold change (FC) (MDA-MB-231 [18]): 0.78
fold change (FC) (MDA-MB-231 [19]): 0.78
fold change (FC) (Homo sapiens [22]): 0.8
fold change (FC) (Homo sapiens [23]): 0.57
inhibition (Homo sapiens [24]): 43%

Reference: ChEMBL document CHEMBL4043149, “Beneficial effects of a medicinal herb, Cirsium japonicum var. maackii, extract and its major component, cirsimaritin on breast cancer metastasis in MDA-MB-231 breast cancer cells” (Bioorg Med Chem Lett, 2017)
